Reference: ChEMBL document CHEMBL4038298, “Ester- and amide-containing multiQACs: Exploring multicationic soft antimicrobial agents” (Bioorg Med Chem Lett, 2017)

How the values were obtained:
[1] = system: Staphylococcus aureus; assay: Antibacterial activity against methicillin-susceptible Staphylococcus aureus SH1000 incubated for 72 hrs; assay type: functional; conditions: SH1000, 72 h
[2] = system: Enterococcus faecalis; assay: Antibacterial activity against Enterococcus faecalis OG1RF incubated for 72 hrs; assay type: functional
[3] = system: Escherichia coli; assay: Antibacterial activity against Escherichia coli MC4100 incubated for 72 hrs; assay type: functional; conditions: str. K-12 substr. MC4100, 72 h
[4] = system: Pseudomonas aeruginosa; assay: Antibacterial activity against Pseudomonas aeruginosa PAO1 incubated for 72 hrs; assay type: functional; conditions: PAO1, 72 h
[5] = system: Staphylococcus aureus; assay: Antibacterial activity against community acquired methicillin-resistant Staphylococcus aureus USA300-0114 incubated for 72 hrs; assay type: functional; conditions: USA300-0114, 72 h
[6] = system: Staphylococcus aureus; assay: Antibacterial activity against hospital-acquired methicillin-resistant Staphylococcus aureus ATCC 33592 incubated for 72 hrs; assay type: functional; conditions: ATCC 33592, 72 h
[7] = Stability of the compound in pure water by LCMS method; assay type: physicochemical

SMILES	MIC [1]	MIC [2]	MIC [3]	MIC [4]	MIC [5]	MIC [6]	Stability [7]
CCCCCCCCOC(=O)C[N+](C)(C)CCC[N+](C)(CCC[N+](C)(C)CC(=O)OCCCCCCCC)CC(=O)OCCCCCCCC.[Br-].[Br-].[Br-]	8 µM	16 µM	16 µM	32 µM	8 µM	8 µM	Stable
CCCCCCCCCOC(=O)C[N+](C)(C)CCCN(CCC[N+](C)(C)CC(=O)OCCCCCCCCC)CCC[N+](C)(C)CC(=O)OCCCCCCCCC.[Br-].[Br-].[Br-]	2 µM	8 µM	4 µM	16 µM	4 µM	4 µM	Stable
CCCCCCOC(=O)C[N+](C)(C)CCN1CC[N+](C)(CC(=O)OCCCCCC)CC1.[Br-].[Br-]	> 250 µM	> 250 µM	> 250 µM	> 250 µM	> 250 µM	> 250 µM	Stable
CCCCCCOC(=O)C[N+](C)(C)CCC[N+](C)(CCC[N+](C)(C)CC(=O)OCCCCCC)CC(=O)OCCCCCC.[Br-].[Br-].[Br-]	250 µM	250 µM	> 250 µM	> 250 µM	125 µM	250 µM	Stable
CCCCCCCCCCCCOC(=O)C[N+](C)(C)Cc1ccccc1.[Br-]	2 µM	4 µM	16 µM	63 µM	2 µM	2 µM	Stable
CCCCCCCCOC(=O)C[N+](C)(C)CCCN(CCC[N+](C)(C)CC(=O)OCCCCCCCC)CCC[N+](C)(C)CC(=O)OCCCCCCCC.[Br-].[Br-].[Br-]	2 µM	8 µM	8 µM	63 µM	4 µM	4 µM	Stable
CCCCCCCCOC(=O)C[N+](C)(C)CC[N+](C)(C)CC(=O)OCCCCCCCC.[Br-].[Br-]	32 µM	63 µM	63 µM	125 µM	16 µM	32 µM	Stable
CCCCCCCCCOC(=O)C[N+](C)(C)Cc1ccccc1.[Br-]	32 µM	125 µM	125 µM	> 250 µM	32 µM	63 µM	Stable
CCCCCCCOC(=O)C[N+](C)(C)CCCN(CCC[N+](C)(C)CC(=O)OCCCCCCC)CCC[N+](C)(C)CC(=O)OCCCCCCC.[Br-].[Br-].[Br-]	16 µM	32 µM	63 µM	> 250 µM	8 µM	32 µM	Stable
CCCCCCCCOC(=O)C[N+](C)(C)CCN1CC[N+](C)(CC(=O)OCCCCCCCC)CC1.[Br-].[Br-]	> 250 µM	63 µM	250 µM	> 250 µM	32 µM	63 µM	Stable
CCCCCCCCCOC(=O)C[N+](C)(C)CCN1CC[N+](C)(CC(=O)OCCCCCCCCC)CC1.[Br-].[Br-]	4 µM	8 µM	16 µM	125 µM	4 µM	4 µM	Stable
CCCCCCCCCOC(=O)C[N+](C)(C)CC[N+](C)(C)CC(=O)OCCCCCCCCC.[Br-].[Br-]	2 µM	16 µM	16 µM	32 µM	4 µM	8 µM	Stable
CCCCCCCCCCCCOC(=O)C[N+](C)(C)CCN1CC[N+](C)(CC(=O)OCCCCCCCCCCCC)CC1.[Br-].[Br-]	8 µM	32 µM	16 µM	32 µM	8 µM	8 µM	Stable
CCCCCCCCCCCCOC(=O)C[N+](C)(C)CCC[N+](C)(CCC[N+](C)(C)CC(=O)OCCCCCCCCCCCC)CC(=O)OCCCCCCCCCCCC.[Br-].[Br-].[Br-]	4 µM	8 µM	8 µM	16 µM	8 µM	8 µM	Stable
CCCCCCCOC(=O)C[N+](C)(C)Cc1ccccc1.[Br-]	> 250 µM	> 250 µM	> 250 µM	> 250 µM	> 250 µM	> 250 µM	Stable
CCCCCCCCCCOC(=O)C[N+](C)(C)Cc1ccccc1.[Br-]	32 µM	32 µM	63 µM	> 250 µM	16 µM	32 µM	Stable
CCCCCCCCCCOC(=O)C[N+](C)(C)CCC[N+](C)(CCC[N+](C)(C)CC(=O)OCCCCCCCCCC)CC(=O)OCCCCCCCCCC.[Br-].[Br-].[Br-]	4 µM	8 µM	8 µM	16 µM	4 µM	4 µM	Stable

SMILES	MIC [1]	MIC [2]	MIC [3]	MIC [4]	MIC [5]	MIC [6]	Stability [7]
CCCCCCCCCCNC(=O)C[N+](C)(C)CCC[N+](C)(CCC[N+](C)(C)CC(=O)NCCCCCCCCCC)CC(=O)NCCCCCCCCCC.[Br-].[Br-].[Br-]	1 µM	2 µM	2 µM	63 µM	1 µM	2 µM	Stable
CCCCCCCCCCCCCCOC(=O)C[N+](C)(C)CC[N+](C)(C)CC(=O)OCCCCCCCCCCCCCC.[Br-].[Br-]	16 µM	32 µM	250 µM	> 250 µM	16 µM	32 µM	Stable
CCCCCCOC(=O)C[N+](C)(C)CCCN(CCC[N+](C)(C)CC(=O)OCCCCCC)CCC[N+](C)(C)CC(=O)OCCCCCC.[Br-].[Br-].[Br-]	63 µM	250 µM	250 µM	> 250 µM	63 µM	250 µM	Stable
CCCCCCCCCCNC(=O)C[N+](C)(C)CC[N+](C)(C)CC(=O)NCCCCCCCCCC.[Br-].[Br-]	1 µM	1 µM	1 µM	2 µM	0.5 µM	1 µM	Stable
CCCCCCCCCCCCOC(=O)C[N+](C)(C)CCCN(CCC[N+](C)(C)CC(=O)OCCCCCCCCCCCC)CCC[N+](C)(C)CC(=O)OCCCCCCCCCCCC.[Br-].[Br-].[Br-]	4 µM	8 µM	8 µM	> 250 µM	8 µM	8 µM	Stable
CCCCCCCCCCNC(=O)C[N+](C)(C)Cc1ccccc1.[Br-]	8 µM	16 µM	32 µM	125 µM	8 µM	8 µM	Stable
CCCCCCCCCCCCCCOC(=O)C[N+](C)(C)CCN1CC[N+](C)(CC(=O)OCCCCCCCCCCCCCC)CC1.[Br-].[Br-]	> 250 µM	> 250 µM	> 250 µM	> 250 µM	250 µM	> 250 µM	Stable
CCCCCCCOC(=O)C[N+](C)(C)CCN1CC[N+](C)(CC(=O)OCCCCCCC)CC1.[Br-].[Br-]	> 250 µM	> 250 µM	> 250 µM	> 250 µM	250 µM	> 250 µM	Stable
CCCCCCCCCCCCOC(=O)C[N+](C)(C)CC[N+](C)(C)CC(=O)OCCCCCCCCCCCC.[Br-].[Br-]	16 µM	32 µM	63 µM	125 µM	16 µM	32 µM	Stable
CCCCCCCCCOC(=O)C[N+](C)(C)CCC[N+](C)(CCC[N+](C)(C)CC(=O)OCCCCCCCCC)CC(=O)OCCCCCCCCC.[Br-].[Br-].[Br-]	4 µM	16 µM	8 µM	32 µM	8 µM	8 µM	Stable
CCCCCCCCCCOC(=O)C[N+](C)(C)CC[N+](C)(C)CC(=O)OCCCCCCCCCC.[Br-].[Br-]	4 µM	16 µM	8 µM	32 µM	8 µM	8 µM	Stable
CCCCCCOC(=O)C[N+](C)(C)Cc1ccccc1.[Br-]	> 250 µM	> 250 µM	> 250 µM	> 250 µM	> 250 µM	> 250 µM	Stable
CCCCCCCCOC(=O)C[N+](C)(C)Cc1ccccc1.[Br-]	125 µM	250 µM	250 µM	> 250 µM	250 µM	125 µM	Stable
CCCCCCCOC(=O)C[N+](C)(C)CCC[N+](C)(CCC[N+](C)(C)CC(=O)OCCCCCCC)CC(=O)OCCCCCCC.[Br-].[Br-].[Br-]	32 µM	32 µM	125 µM	125 µM	16 µM	32 µM	Stable
CCCCCCCOC(=O)C[N+](C)(C)CC[N+](C)(C)CC(=O)OCCCCCCC.[Br-].[Br-]	250 µM	> 250 µM	> 250 µM	> 250 µM	125 µM	250 µM	Stable
CCCCCCOC(=O)C[N+](C)(C)CC[N+](C)(C)CC(=O)OCCCCCC.[Br-].[Br-]	> 250 µM	> 250 µM	> 250 µM	> 250 µM	250 µM	> 250 µM	Stable
CCCCCCCCCCCCCCOC(=O)C[N+](C)(C)Cc1ccccc1.[Br-]	1 µM	4 µM	8 µM	250 µM	2 µM	1 µM	Stable
